From publication PMC9505425, “Targeting of the Mitochondrial TET1 Protein by Pyrrolo[3,2-b]pyrrole Chelators” (International Journal of Molecular Sciences, 2022)
Where “and” joins values, the source holds several entries; their conditions need not be identical. Identical values can stand only once.

Tests used:
U-118 MG cells = assay: MTT cytotoxicity assay, U-118 MG; assay type: cell-based, human; details: 48 h; for IC50: MTT
Method: (§1) The effects of the tested compounds 1–6 on HF-P4, U-118 MG, H1299, BT-20, and Caov-3 cell lines were evaluated by the MTT assay during 48 h treatment (Table 2 and Tables S2–S31). In all tested compounds, we recognized a difference in cytotoxicity between healthy cells (HF-P4) and cancer cell lines (BT-20, Caov-3, and H-1299). […] In the case of ovarian cancer, the authors discovered oncogenic and poor prognosis roles of TET1 in epithelial ovarian carcinoma (EOC). TET1 is believed to demethylate the epigenome and activate numerous oncogenic pathways in EOC. The aforementioned study presents a new mechanism where TET1 contributes to tumor development through collaboration with CK2α [21]. The overexpression of the TET1 protein was also found in triple negative breast cancer and was associated with an activation of PI3K/mTOR pathway and decreased overall survival.
A human glioblastoma cell line (U118-MG) and a human non-small-cell lung carcinoma cell line (H1299) were used for the cytotoxicity assay (MTT). Both cell lines were generously supplied by Dr. M. Masařik, PhD, Department of Pathological physiology, Masaryk University, Czech Republic. U118-MG cells were cultivated under standard conditions in Dulbecco’s modified Eagle’s medium (ATCC, Manassas, VA, USA) supplemented with 10% FBS and streptomycin (100 μg/mL) at 37 °C at a 5% CO2 atmosphere. H1299 cells were cultivated under standard conditions in RPMI 1640 (BioTech, Prague, Czech Republic) medium supplemented with 10% FBS and streptomycin (100 μg/mL) at 37 °C at a 5% CO2 atmosphere.
(§2) For the cytotoxicity assay, we used the following cell lines: human glioblastoma cell line U118-MG, human mammary gland/breast cell line BT-20, human ovary adenocarcinoma cell line Caov-3, and non-small-cell lung carcinoma H-1299. As previously mentioned, these cell lines contain a high level of the TET1 protein, which corresponds to a lower overall survival. In addition to these cell cultures, we used the human dermal fibroblast cell line HF-P4 as a healthy control. Determination of cytotoxicity was performed using the MTT [3-(4,5-dimethylthiazol-2-yl)-2,5-diphenyltetrazolium bromide] colorimetric assay. Viable cells from each cell line were cultured in 96-well plates (VWR, Stříbrná Skalice, Czech Republic) at a density of 1.0 × 10^5 cells per well and allowed to grow for 24 h in 200 μL of recommended medium. After a 1-day incubation, the medium was replaced with solutions of compounds 1–6 at concentration ranges of 0.1–20 μM. Each concentration was measured four times within one test, and the entire test was repeated three times. Tested compounds 1–6 were dissolved in DMSO and then diluted with corresponding medium to a final volume of 200 μL (maximum 1% DMSO). After 48 h exposure, cells were treated with 175 μL of MTT solution (P-LAB, Prague, Czech Republic) for 2 h. In the next step, MTT solution was removed, and 125 μL of DMSO (Penta, Prague, Czech Republic) was added to solubilize dark crystals of formazan formed in intact cells, and absorbance was measured at 570 nm by the enzyme-linked immunoabsorbent assay reader Infinite® 200 PRO (Tecan, Männedorf, Switzerland). The final DMSO concentration was smaller than 1% (v/v). The absorbance of untreated cells was considered 100%, and IC50 values were calculated by the GraphPad Prism 8 software. As a parameter for cytotoxicity, we used a concentration that inhibits 50% of cell growth (IC50).

BT-20 cells = assay: MTT cytotoxicity assay, BT-20; assay type: cell-based, human; details: for Cell viability % / IC50: 48 h; for IC50: BT-20, MTT
Method: as §1
The human mammary gland/breast cell line (BT-20), purchased from ATCC (BT-20 (ATCC® HTB-19™), Manassas, VA, USA), was used for the cytotoxicity assay (MTT), and BT-20 cells were cultivated under standard conditions in Eagle’s minimum essential medium (ATCC, Manassas, VA, USA) supplemented with 10% FBS and streptomycin (100 μg/mL) at 37 °C at a 5% CO2 atmosphere.
as §2

[1] = Homo sapiens, U-118-MG, U-118 MG, 100 nM, repeats, read-out: Cell viability %
[2] = Homo sapiens, U-118-MG, U-118 MG, 750 nM, repeats, read-out: Cell viability %
[3] = Homo sapiens, U-118-MG, U-118 MG, 1 uM, repeats, read-out: Cell viability %
[4] = Homo sapiens, U-118-MG, U-118 MG, 2.5 uM, repeats, read-out: Cell viability %
[5] = Homo sapiens, U-118-MG, U-118 MG, 5 uM, repeats, read-out: Cell viability %
[6] = Homo sapiens, U-118-MG, U-118 MG, 7.5 uM, repeats, read-out: Cell viability %
[7] = Homo sapiens, U-118-MG, U-118 MG, 10 uM, repeats, read-out: Cell viability %
[8] = Homo sapiens, U-118-MG, U-118 MG, 15 uM, repeats, read-out: Cell viability %
[9] = Homo sapiens, U-118-MG, U-118 MG, 20 uM, repeats, read-out: Cell viability %
[10] = U-118 MG, 100 nM, repeats, 0.1 µM
[11] = U-118 MG, 500 nM, repeats, 0.5 µM
[12] = U-118 MG, 750 nM, repeats, 0.75 µM
[13] = BT-20, 750 nM, repeats, 0.75 µM
[14] = Homo sapiens, BT-20, 48 h, BT-20, 500 nM, repeats, read-out: Cell viability %
[15] = Homo sapiens, BT-20, 48 h, BT-20, 1 uM, repeats, read-out: Cell viability %
[16] = Homo sapiens, BT-20, 48 h, BT-20, 5 uM, repeats, read-out: Cell viability %
[17] = Homo sapiens, BT-20, 48 h, BT-20, 7.5 uM, repeats, read-out: Cell viability %
[18] = Homo sapiens, BT-20, 48 h, BT-20, 10 uM, repeats, read-out: Cell viability %
[19] = Homo sapiens, BT-20, 48 h, BT-20, 15 uM, repeats, read-out: Cell viability %
[20] = Homo sapiens, BT-20, 48 h, BT-20, 20 uM, repeats, read-out: Cell viability %

Structure (SMILES): Cc1ccc(-n2c(-c3ccc(C(=O)N/N=C/c4cc(F)ccc4O)cc3)cc3c2cc(-c2ccc(C(=O)N/N=C/c4cc(F)ccc4O)cc2)n3-c2ccc(C)cc2)cc1 [Compound 3]
- viability at 0.1 µM (U-118 MG cells; [1]): 90.9%
- viability at 0.75 µM (U-118 MG cells; [2]): 70.2%
- viability at 1 µM (U-118 MG cells; [3]): 75.9%
- viability at 2.5 µM (U-118 MG cells; [4]): 64.7%
- viability at 5 µM (U-118 MG cells; [5]): 57.1%
- viability at 7.5 µM (U-118 MG cells; [6]): 48.3%
- viability at 10 µM (U-118 MG cells; [7]): 45.6%
- viability at 15 µM (U-118 MG cells; [8]): 42.6%
- viability at 20 µM (U-118 MG cells; [9]): 35.1%
- IC50 (U-118 MG cells; Homo sapiens, U-118-MG): 19.5 µM
- Cell viability % (U-118 MG cells; [10]): 99.65% and 109.711%
- Cell viability % (U-118 MG cells; [11]): 87.97% and 59.47% and 56.29%
- Cell viability % (U-118 MG cells; [12]): 72.44% and 70.85%
- Cell viability % (U-118 MG cells; U-118 MG, 1 uM, repeats): 71.04% and 66.44%
- Cell viability % (U-118 MG cells; U-118 MG, 2.5 uM, repeats): 61.47% and 71.58%
- Cell viability % (U-118 MG cells; U-118 MG, 5 uM, repeats): 68.44% and 68.48%
- Cell viability % (U-118 MG cells; U-118 MG, 7.5 uM, repeats): 52.95% and 55.16%
- Cell viability % (U-118 MG cells; U-118 MG, 10 uM, repeats): 53.29% and 53%
- Cell viability % (U-118 MG cells; U-118 MG, 15 uM, repeats): 46.07% and 47.09%
- Cell viability % (U-118 MG cells; U-118 MG, 20 uM, repeats): 30.47% and 32.82%
- Cell viability % (BT-20 cells; BT-20, 100 nM, repeats, 0.1 µM): 73.86% and 70.55%
- Cell viability % (BT-20 cells; BT-20, 500 nM, repeats, 0.5 µM): 90.62% and 106.8284%
- Cell viability % (BT-20 cells; [13]): 90.49% and 101.3318%
- Cell viability % (BT-20 cells; BT-20, 1 uM, repeats, 1 µM): 95.2857% and 94.7%
- Cell viability % (BT-20 cells; BT-20, 2.5 uM, repeats, 2.5 µM): 99.34% and 98.89%
- Cell viability % (BT-20 cells; BT-20, 5 uM, repeats, 5 µM): 91.79% and 101.4304%
- Cell viability % (BT-20 cells; BT-20, 7.5 uM, repeats, 7.5 µM): 71.93% and 72.16%
- Cell viability % (BT-20 cells; BT-20, 10 uM, repeats, 10 µM): 60.86% and 57.19%
- Cell viability % (BT-20 cells; BT-20, 15 uM, repeats, 15 µM): 53.94% and 48.1349%
- Cell viability % (BT-20 cells; BT-20, 20 uM, repeats, 20 µM): 33.39% and 29.51%
- viability at 0.1 µM (BT-20 cells; Homo sapiens, BT-20, 48 h, BT-20, 100 nM, repeats, read-out: Cell viability %): 83.4%
- viability at 0.5 µM (BT-20 cells; [14]): 95.3%
- viability at 0.75 µM (BT-20 cells; Homo sapiens, BT-20, 48 h, BT-20, 750 nM, repeats, read-out: Cell viability %): 99.7%
- viability at 1 µM (BT-20 cells; [15]): 104%
- viability at 2.5 µM (BT-20 cells; Homo sapiens, BT-20, 48 h, BT-20, 2.5 uM, repeats, read-out: Cell viability %): 99.4%
- viability at 5 µM (BT-20 cells; [16]): 85.1%
- viability at 7.5 µM (BT-20 cells; [17]): 73.1%
- viability at 10 µM (BT-20 cells; [18]): 62.9%
- viability at 15 µM (BT-20 cells; [19]): 48.9%
- viability at 20 µM (BT-20 cells; [20]): 41%
- IC50 (BT-20 cells; Homo sapiens): 13.7 µM
- melting point: 337 to 338 °C

Structure (SMILES): Cc1ccc(-n2c(-c3ccc(C(=O)N/N=C/c4ccc(O)cc4O)cc3)cc3c2cc(-c2ccc(C(=O)N/N=C/c4ccc(O)cc4O)cc2)n3-c2ccc(C)cc2)cc1 [Compound 4]
- viability at 0.1 µM (U-118 MG cells; [1]): 89.7%
- viability at 0.5 µM (U-118 MG cells; Homo sapiens, U-118-MG, U-118 MG, 500 nM, repeats, read-out: Cell viability %): 81.5%
- viability at 0.75 µM (U-118 MG cells; [2]): 88.6%
- viability at 1 µM (U-118 MG cells; [3]): 88.8%
- viability at 2.5 µM (U-118 MG cells; [4]): 78.8%
- viability at 5 µM (U-118 MG cells; [5]): 73.7%
- viability at 7.5 µM (U-118 MG cells; [6]): 24.8%
- viability at 10 µM (U-118 MG cells; [7]): 30%
- viability at 15 µM (U-118 MG cells; [8]): 21.2%
- viability at 20 µM (U-118 MG cells; [9]): 15.2%
- IC50 (U-118 MG cells; Homo sapiens, U-118-MG): 6.81 µM
- Cell viability % (U-118 MG cells; [10]): 88.01% and 106.1964%
- Cell viability % (U-118 MG cells; [11]): 94.35% and 91.8%
- Cell viability % (U-118 MG cells; [12]): 93.98% and 97.45%
- Cell viability % (U-118 MG cells; U-118 MG, 1 uM, repeats): 94.85% and 87.1%
- Cell viability % (U-118 MG cells; U-118 MG, 2.5 uM, repeats): 87.61% and 83.16%
- Cell viability % (U-118 MG cells; U-118 MG, 5 uM, repeats): 72.71% and 76.46%
- Cell viability % (U-118 MG cells; U-118 MG, 7.5 uM, repeats): 24.19% and 24.17%
- Cell viability % (U-118 MG cells; U-118 MG, 10 uM, repeats): 29.03% and 31.26%
- Cell viability % (U-118 MG cells; U-118 MG, 15 uM, repeats): 21.17% and 19.82%
- Cell viability % (U-118 MG cells; U-118 MG, 20 uM, repeats): 15.6756% and 12.31%
- Cell viability % (BT-20 cells; BT-20, 100 nM, repeats, 0.1 µM): 89.05% and 76.97% and 98.11%
- Cell viability % (BT-20 cells; BT-20, 500 nM, repeats, 0.5 µM): 90.8088% and 82.57%
- Cell viability % (BT-20 cells; [13]): 103.1798% and 88.69% and 109.7163%
- Cell viability % (BT-20 cells; BT-20, 1 uM, repeats, 1 µM): 100.5483% and 88.51%
- Cell viability % (BT-20 cells; BT-20, 2.5 uM, repeats, 2.5 µM): 82.74% and 106.2024% and 110.5893%
- Cell viability % (BT-20 cells; BT-20, 5 uM, repeats, 5 µM): 77.52% and 61.62%
- Cell viability % (BT-20 cells; BT-20, 7.5 uM, repeats, 7.5 µM): 44.3% and 44.18%
- Cell viability % (BT-20 cells; BT-20, 10 uM, repeats, 10 µM): 18.92% and 21.27%
- Cell viability % (BT-20 cells; BT-20, 15 uM, repeats, 15 µM): 8.454% and 10.83%
- Cell viability % (BT-20 cells; BT-20, 20 uM, repeats, 20 µM): 9.864% and 12.92%
- viability at 0.5 µM (BT-20 cells; [14]): 77.8%
- viability at 1 µM (BT-20 cells; [15]): 96.3%
- viability at 5 µM (BT-20 cells; [16]): 73.5%
- viability at 7.5 µM (BT-20 cells; [17]): 37.5%
- viability at 10 µM (BT-20 cells; [18]): 20.1%
- viability at 15 µM (BT-20 cells; [19]): 8.06%
- viability at 20 µM (BT-20 cells; [20]): 8.37%
- IC50 (BT-20 cells; Homo sapiens): 6.22 µM
- melting point: 328 to 329 °C
